Measurements as given in the supplement of paper PMC6045584.
± gives the standard deviation of the averaged measurements.

What follows are test systems tested with COc1cc2c(cc1O)CC[C@@H]1[C@@H]2CC[C@]2(C)[C@@H](O)CC[C@@H]12 [2-METHOXYESTRADIOL] (assay: surviving fraction relative to DMSO-only wells; higher = less growth inhibition). Conditions: 0.5 nM; exposure time: 5 days.
Method in brief: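 Tumour cell lines were seeded in log phase at 250–500 cells per well into 384-well plates. Starting 24 hours later, inhibitors were present continuously for five days at 0.5, 1, 5, 10, 50, 100, 500 and 1000 nM. Surviving fraction, from CellTiter-Glo luminescence, is normalised to the median of DMSO-only wells. Three screens per line were required, with replicate Pearson r >0.7 and median Z' >0.3 for a line to be kept.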

Point of comparison: SKBR3 BREAST, surviving fraction 0.913 ± 0.033. Against it:
- SUM149.B1*.S BREAST — higher, 1.04 ± 0.011
- 93VU HEADNECK — within error, 0.864 ± 0.13
- LM7 BONE — within error, 0.969 ± 0.063
- 143B BONE — higher, 1.04 ± 0.049
- SUM159 BREAST — higher, 1.02 ± 0.028
- SUM149 BREAST — within error, 0.984 ± 0.04
- MDAMB361 BREAST — within error, 0.843 ± 0.082
- SAOS2 BONE — higher, 1.09 ± 0.099
- ASKA SYNOVIAL — higher, 1.07 ± 0.086
- HCC1395 BREAST — within error, 0.926 ± 0.081
- HCC1954 BREAST — within error, 0.93 ± 0.027
- CME SYNOVIAL — higher, 1.17 ± 0.12
- VCAP PROSTATE — higher, 1.01 ± 0.05
- YAMATO SYNOVIAL — higher, 1.06 ± 0.051
- HCC202 BREAST — within error, 1.1 ± 0.39
- HELA CERVIX — within error, 0.982 ± 0.043
- SG27 HEADNECK — higher, 1.14 ± 0.19
- CAL72 BONE — within error, 1.03 ± 0.092
- MDAMB134 BREAST — within error, 0.832 ± 0.24
- C33A CERVIX — lower, 0.689 ± 0.038
- MHM BONE — higher, 1.02 ± 0.035
- VP229 BREAST — higher, 1.03 ± 0.077
- SYO1 SYNOVIAL — within error, 0.933 ± 0.044
- ZR751 BREAST — within error, 1.06 ± 0.12
- KPD BONE — higher, 0.992 ± 0.043
- SIHA CERVIX — lower, 0.869 ± 0.011
- DU4475 BREAST — within error, 0.835 ± 0.14
- BT549 BREAST — within error, 0.974 ± 0.087
- COLO320DM LARGE INTESTINE — higher, 1.14 ± 0.11
- T47D BREAST — higher, 1 ± 0.053
- H23 LUNG — within error, 0.97 ± 0.025

Same assay, conditions: 1 nM; exposure time: 5 days

Point of comparison: LM7 BONE, surviving fraction 1.03 ± 0.016. Against it:
- SUM149.B1*.S BREAST — within error, 1.02 ± 0.046
- 93VU HEADNECK — lower, 0.829 ± 0.072
- 143B BONE — within error, 1.06 ± 0.054
- SUM159 BREAST — within error, 1.02 ± 0.028
- SUM149 BREAST — within error, 0.997 ± 0.052
- MDAMB361 BREAST — lower, 0.827 ± 0.11
- SAOS2 BONE — higher, 1.16 ± 0.065
- ASKA SYNOVIAL — within error, 1.08 ± 0.068
- HCC1395 BREAST — higher, 1.15 ± 0.08
- HCC1954 BREAST — within error, 1.09 ± 0.072
- CME SYNOVIAL — within error, 1.01 ± 0.079
- VCAP PROSTATE — within error, 0.983 ± 0.13
- YAMATO SYNOVIAL — higher, 1.14 ± 0.052
- HCC202 BREAST — within error, 1.22 ± 0.36
- HELA CERVIX — within error, 1 ± 0.031
- SG27 HEADNECK — higher, 1.2 ± 0.083
- CAL72 BONE — within error, 0.999 ± 0.14
- MDAMB134 BREAST — lower, 0.884 ± 0.12
- C33A CERVIX — lower, 0.772 ± 0.04
- SKBR3 BREAST — within error, 0.924 ± 0.16
- MHM BONE — within error, 1.01 ± 0.033
- VP229 BREAST — within error, 1.09 ± 0.15
- SYO1 SYNOVIAL — lower, 0.93 ± 0.038
- ZR751 BREAST — within error, 1.04 ± 0.097
- KPD BONE — lower, 0.964 ± 0.04
- SIHA CERVIX — lower, 0.902 ± 0.085
- DU4475 BREAST — lower, 0.807 ± 0.045
- BT549 BREAST — within error, 1.05 ± 0.1
- COLO320DM LARGE INTESTINE — within error, 1.11 ± 0.12
- T47D BREAST — within error, 1.02 ± 0.017
- H23 LUNG — lower, 0.949 ± 0.017

Same assay, conditions: 5 nM; exposure time: 5 days

Point of comparison: SUM159 BREAST, surviving fraction 1.01 ± 0.027. Against it:
- SUM149.B1*.S BREAST — within error, 1.02 ± 0.025
- 93VU HEADNECK — within error, 1.07 ± 0.096
- LM7 BONE — higher, 1.06 ± 0.022
- 143B BONE — within error, 1.1 ± 0.071
- SUM149 BREAST — within error, 1.07 ± 0.072
- MDAMB361 BREAST — lower, 0.865 ± 0.046
- SAOS2 BONE — higher, 1.17 ± 0.019
- ASKA SYNOVIAL — within error, 1.05 ± 0.054
- HCC1395 BREAST — higher, 1.14 ± 0.035
- HCC1954 BREAST — higher, 1.049 ± 0.0014
- CME SYNOVIAL — higher, 1.19 ± 0.026
- VCAP PROSTATE — lower, 0.919 ± 0.054
- YAMATO SYNOVIAL — within error, 1.08 ± 0.079
- HCC202 BREAST — within error, 1.12 ± 0.29
- HELA CERVIX — within error, 0.985 ± 0.013
- SG27 HEADNECK — within error, 1.04 ± 0.12
- CAL72 BONE — the same, 1.01 ± 0.11
- MDAMB134 BREAST — lower, 0.777 ± 0.041
- C33A CERVIX — within error, 0.918 ± 0.1
- SKBR3 BREAST — within error, 1.09 ± 0.065
- MHM BONE — within error, 1.04 ± 0.049
- VP229 BREAST — within error, 0.954 ± 0.093
- SYO1 SYNOVIAL — lower, 0.933 ± 0.017
- ZR751 BREAST — within error, 1.02 ± 0.039
- KPD BONE — within error, 1.02 ± 0.066
- SIHA CERVIX — within error, 0.952 ± 0.092
- DU4475 BREAST — lower, 0.849 ± 0.11
- BT549 BREAST — within error, 1.05 ± 0.12
- COLO320DM LARGE INTESTINE — within error, 1.08 ± 0.15
- T47D BREAST — within error, 0.9847 ± 0.0046
- H23 LUNG — within error, 1 ± 0.035

Same assay, conditions: 10 nM; exposure time: 5 days

Point of comparison: MHM BONE, surviving fraction 1.03 ± 0.05. Against it:
- SUM149.B1*.S BREAST — within error, 1.02 ± 0.04
- 93VU HEADNECK — within error, 1.14 ± 0.062
- LM7 BONE — within error, 1.01 ± 0.056
- 143B BONE — within error, 1.09 ± 0.073
- SUM159 BREAST — within error, 1.02 ± 0.022
- SUM149 BREAST — lower, 0.955 ± 0.025
- MDAMB361 BREAST — lower, 0.829 ± 0.11
- SAOS2 BONE — higher, 1.17 ± 0.05
- ASKA SYNOVIAL — within error, 1.07 ± 0.054
- HCC1395 BREAST — higher, 1.25 ± 0.085
- HCC1954 BREAST — within error, 1.05 ± 0.12
- CME SYNOVIAL — within error, 1.08 ± 0.014
- VCAP PROSTATE — within error, 1.1 ± 0.08
- YAMATO SYNOVIAL — higher, 1.16 ± 0.028
- HCC202 BREAST — within error, 1.02 ± 0.19
- HELA CERVIX — lower, 0.938 ± 0.04
- SG27 HEADNECK — within error, 1.05 ± 0.081
- CAL72 BONE — within error, 1.02 ± 0.13
- MDAMB134 BREAST — within error, 0.916 ± 0.18
- C33A CERVIX — the same, 1.03 ± 0.055
- SKBR3 BREAST — within error, 0.956 ± 0.12
- VP229 BREAST — within error, 1.04 ± 0.094
- SYO1 SYNOVIAL — within error, 0.961 ± 0.046
- ZR751 BREAST — within error, 1.13 ± 0.058
- KPD BONE — the same, 1.03 ± 0.014
- SIHA CERVIX — within error, 0.979 ± 0.057
- DU4475 BREAST — within error, 0.901 ± 0.23
- BT549 BREAST — within error, 1.02 ± 0.024
- COLO320DM LARGE INTESTINE — within error, 1.08 ± 0.078
- T47D BREAST — within error, 1.01 ± 0.038
- H23 LUNG — within error, 0.963 ± 0.039
